Test results from patent publication US20170029388A1, “Treatment of Neurodegenerative Diseases with Asparagine Endopeptidase (AEP) Inhibitors and Compositions Related Thereto” (INTERCONTINENTAL GREAT BRANDS LLC, priority 2014, published 2017).
Read-outs that look alike come from different tables or passages of the source.

Legend:
[1] = mouse, microsomes
[2] = human, microsomes
[3] = biological target: T1, AEP in human B lymphoblastoid Pala cells (Homo sapiens, UniProt Q99538); assay: IC50 assays in intact Pala cells; type: cell-based; conditions: 2 hr incubation, residual AEP activity in lysate
T1 construct: human B lymphoblastoid pala cells, which are rich in endogenous AEP; endogenous in cells; host or cells: Pala cells (human B lymphoblastoid)
Method: The cells were incubated with inhibitors for 2 hrs then cells washed, harvested and lysed and the residual enzymatic activity was determined. Lysate was normalized by Bradford assay and the experiment was performed in triplicate and the mean results and SEM were plotted.
In an attempt to assess the activity of the compounds in intact cells, the compounds were incubated with human B lymphoblastoid pala cells, which are rich in endogenous AEP and have been used for inhibiting AEP in cellular assay.
Human B Lymphoblastoid Pala cells, which express high concentrations of AEP, were cultured in RPMI-1640, supplemented with 10% FBS, 2 mM L-Glutamine, 100 units/mL Penicillin, 100 μg/mL Streptomycin. Various concentrations of each compound were incubated with the Pala cells for 2 hr at 37° C. Cells were collected, washed twice with PBS and lysed in Lysis Buffer (20 mM Citric Acid, 60 mM Disodium Hydrogen Orthophosphate, 1 mM EDTA, 0.1% CHAPS, pH 5.8). The protein concentrations were normalized by Bradford assay and lysates were assayed with 5 μ,M Cbz-Ala-Ala-Asn-AMC. […] Data were analyzed with GraFit version 5.0.11 software package.

[4] = biological target: T2, AEP (Homo sapiens, UniProt Q99538); assay: DTT reversibility assay; type: biochemical; conditions: 5x IC50 of compound, 10 mM DTT or L-cysteine
T2 construct: tested with purified active AEP, IC50 values for the top 8 candidates were found; purchased Sino Biological
T2 sequence (Q99538 18-323 limits assumed): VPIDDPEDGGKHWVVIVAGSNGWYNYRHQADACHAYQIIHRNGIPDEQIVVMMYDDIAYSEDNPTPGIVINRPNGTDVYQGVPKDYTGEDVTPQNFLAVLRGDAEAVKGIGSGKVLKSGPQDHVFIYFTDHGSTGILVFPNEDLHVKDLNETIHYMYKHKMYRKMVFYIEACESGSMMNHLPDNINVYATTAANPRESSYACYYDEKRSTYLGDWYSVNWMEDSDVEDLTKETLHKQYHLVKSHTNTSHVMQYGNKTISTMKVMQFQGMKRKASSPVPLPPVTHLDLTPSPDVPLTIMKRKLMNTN
Method: AEP was reacted with specified inhibitor, after 15 min 10 mM DTT or L-cysteine was added to the reaction and the fluorescent signal was read for an additional 15 min. At the end of the second 15 min incubation, the percentage of product formed in the presence of each compound was determined in comparison to the DMSO control reaction.
Although it is not intended that embodiments of this disclosure be limited by any particular mechanism, to gain additional insight into the mechanism utilized by the inhibitors for abrogation of AEP activity, their reversibility in the presence of free thiols was determined. The addition of a strong reducing agent, such as DTT, or a weaker reducing agent, L-cysteine, to an inhibited reaction can be used to out-compete the inhibitory agent and restore catalytic activity to an enzyme with an active-site thiol residue. Here, a similar approach was used by adding a reducing agent, either DTT or L-cysteine, to a reaction, in which AEP had been incubated with a specified inhibitor, in an attempt to reverse the effects of the inhibitor. […] For compounds BB1 and 38, this increase in enzymatic activity may be due to the reduction of a disulfide linkage between the inhibitor and the enzyme, since these compounds contain thiols. Compound 10 contains a thiocyanate and may undergo nucleophilic attack by the enzyme's active-site thiolate to form a thioimidate enzyme-inhibitor complex. Under acidic conditions, this complex is reducible by either a strong reducing agent, such as DTT, or the weaker L-cysteine.
Simultaneously, 10 mM (final concentration) dithiothreitol (DTT) or L-cysteine was added to each reaction and incubated for an additional 15 min. At the end of the second 15 min incubation time, the fluorescence was measured for each sample. The amount of product formed in the presence of DMSO was used to determine the percentage of AEP activity in the presence of each drug.

[5] = system: cleavage of the amyloid precursor protein (APP); assay: OGD in primary cortical neurons, APP cleavage (immunoblot); type: cell-based; conditions: for cleavage of APP after OGD: 1 μM compound
Method: (§1) A. AEP activity, measured in primary neuronal cultures with 5 μM Cbz-Ala-Ala-Asn-AMC (x-axis denotes neurons were treated with 0.1 μM or 1.0 μM specified compound). B. Caspase activity, measured in primary neuronal cultures with 5 μM Ac-Asp-Glu-Val-Asp-AMC. C. Cathepsin activity, measured in primary neuronal cultures with 5 μM D-Val-Leu-Lys-AMC. D. Inhibition of APP cleavage. Lysates of primary cortical neurons pre-incubated with compounds for 30 min, underwent OGD for 4 hrs, were reperfused for 18 hrs (normoxia neurons remained at normoxic conditions). E. APP can be cleaved in a dose-dependent manner. Lysates of primary cortical neurons pre-incubated with compounds for 30 min, underwent OGD for 4 hrs, were reperfused for 18 hrs (normoxia neurons remained at normoxic conditions).
Depriving cells of oxygen and glucose is a cellular model that is employed to trigger acidosis in cultured cells. The efficacy of the compounds in a cellular model of oxygen-glucose deprivation (OGD) was determined in an effort to mimic the effects of stroke in primary cultured neurons. As a result of depriving neurons of oxygen and glucose-containing medium, AEP activity was doubled (FIG. 7A, ‘DMSO-Norm’ compared to ‘DMSO-OGD’), while Caspase-3 and Cathepsin activities remained relatively unchanged. […] Cleavage of APP is observed in response to only DMSO treatment (FIG. 7D, lane 2), and it appears that upon the treatment of 1 μM of compounds 10, 11, and 12, and just 0.1 μM of compounds 31, 38 and 64, the cleavage was blocked, presumably due to AEP inhibition.
Compounds were pre-incubated with primary culture neurons, DIV13, for 30 min. The medium was exchanged for glucose-free DMEM and neurons were de-gased and incubated at 37° C., 95% N2/5% CO2 for 4 hrs with compounds. The medium was exchanged for DMEM and supplemented with compounds, then neurons were reperfused for 18 hrs under normoxic conditions. The neuronal lysates were prepared for AEP, Caspase-3 and Cathepsin assays. Moreover, immunoblotting analysis was conducted with the neuronal lysates using anti-APP, anti-AEP antibodies.

[6] = biological target: CYP2D6 (Homo sapiens, UniProt P10635); assay: CYP inhibition screening, CYP2D6; type: in vitro ADME
CYP2D6, sequence (P10635 whole entry): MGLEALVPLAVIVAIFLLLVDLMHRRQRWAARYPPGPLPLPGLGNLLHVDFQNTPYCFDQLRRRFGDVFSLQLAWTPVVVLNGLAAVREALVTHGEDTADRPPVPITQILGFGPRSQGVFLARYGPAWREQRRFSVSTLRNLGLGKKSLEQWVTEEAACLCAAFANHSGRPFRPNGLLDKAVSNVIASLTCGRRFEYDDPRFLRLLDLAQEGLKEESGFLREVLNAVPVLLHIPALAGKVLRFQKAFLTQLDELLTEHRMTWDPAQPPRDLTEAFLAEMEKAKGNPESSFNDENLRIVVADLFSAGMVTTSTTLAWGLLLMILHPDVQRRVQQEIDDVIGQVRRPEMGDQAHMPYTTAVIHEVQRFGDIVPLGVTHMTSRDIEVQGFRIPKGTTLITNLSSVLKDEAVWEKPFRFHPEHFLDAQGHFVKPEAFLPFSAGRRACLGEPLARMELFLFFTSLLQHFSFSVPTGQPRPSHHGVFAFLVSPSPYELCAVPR

[7] = system: CYP3A; assay: CYP inhibition screening, CYP3A-Testosterone; type: in vitro ADME
[8] = PAMPA
[9] = biological target: T3, CYP1A2 (Homo sapiens, UniProt P05177); assay: CYP inhibition screening, CYP1A2; type: in vitro ADME
T3 sequence (P05177 1-516): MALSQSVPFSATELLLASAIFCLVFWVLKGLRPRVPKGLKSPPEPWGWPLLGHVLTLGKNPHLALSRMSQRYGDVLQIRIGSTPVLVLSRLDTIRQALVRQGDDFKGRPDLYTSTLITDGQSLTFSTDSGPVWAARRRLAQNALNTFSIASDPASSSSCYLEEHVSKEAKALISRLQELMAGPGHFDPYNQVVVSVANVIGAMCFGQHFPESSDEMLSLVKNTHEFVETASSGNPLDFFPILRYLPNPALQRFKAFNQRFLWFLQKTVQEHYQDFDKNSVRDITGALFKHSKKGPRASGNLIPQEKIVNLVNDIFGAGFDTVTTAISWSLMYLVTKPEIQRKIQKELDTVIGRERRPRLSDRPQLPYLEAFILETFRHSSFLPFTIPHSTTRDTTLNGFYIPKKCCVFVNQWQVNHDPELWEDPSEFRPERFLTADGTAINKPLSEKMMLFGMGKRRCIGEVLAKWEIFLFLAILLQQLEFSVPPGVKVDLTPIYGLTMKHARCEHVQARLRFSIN

[10] = biological target: CYP2C9 (Homo sapiens, UniProt P11712); assay: CYP inhibition screening, CYP2C9; type: in vitro ADME
CYP2C9, sequence (P11712 whole entry): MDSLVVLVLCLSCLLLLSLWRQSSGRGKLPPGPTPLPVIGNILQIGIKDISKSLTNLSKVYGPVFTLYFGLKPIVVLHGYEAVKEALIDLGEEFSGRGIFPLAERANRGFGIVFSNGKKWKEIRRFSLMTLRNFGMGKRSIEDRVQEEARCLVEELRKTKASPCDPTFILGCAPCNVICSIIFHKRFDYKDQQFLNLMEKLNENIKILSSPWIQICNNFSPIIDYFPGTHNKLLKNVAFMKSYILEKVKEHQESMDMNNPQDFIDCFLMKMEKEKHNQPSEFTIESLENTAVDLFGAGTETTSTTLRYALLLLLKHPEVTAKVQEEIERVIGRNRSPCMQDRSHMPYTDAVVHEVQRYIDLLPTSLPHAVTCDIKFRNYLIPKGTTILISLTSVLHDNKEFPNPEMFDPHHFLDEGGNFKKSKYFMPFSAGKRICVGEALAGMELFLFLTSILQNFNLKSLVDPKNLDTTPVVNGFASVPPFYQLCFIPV

[11] = biological target: CYP3A4 (Homo sapiens, UniProt P08684); assay: CYP inhibition screening, CYP3A4-Midazolam; type: in vitro ADME
CYP3A4, sequence (P08684 whole entry): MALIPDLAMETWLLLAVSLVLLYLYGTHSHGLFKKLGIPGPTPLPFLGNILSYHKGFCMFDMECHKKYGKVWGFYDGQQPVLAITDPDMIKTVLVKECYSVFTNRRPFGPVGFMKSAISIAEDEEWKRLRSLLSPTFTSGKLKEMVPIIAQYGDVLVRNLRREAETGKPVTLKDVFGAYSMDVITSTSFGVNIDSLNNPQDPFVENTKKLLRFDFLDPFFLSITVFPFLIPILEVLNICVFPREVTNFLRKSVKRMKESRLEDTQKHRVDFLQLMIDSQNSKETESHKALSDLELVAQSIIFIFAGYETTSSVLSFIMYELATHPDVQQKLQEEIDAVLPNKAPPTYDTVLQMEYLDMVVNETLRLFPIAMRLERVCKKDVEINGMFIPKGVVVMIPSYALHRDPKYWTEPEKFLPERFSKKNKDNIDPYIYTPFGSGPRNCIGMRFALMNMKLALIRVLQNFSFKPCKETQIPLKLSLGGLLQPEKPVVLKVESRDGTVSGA

[12] = system: Caco-2 monolayer; assay: Caco-2 monolayer permeability screen; type: in vitro ADME; conditions: Caco-2
Method: To explore the in vitro ADME profiles of the compounds, additional tests were conducted.

[13] = Liver microsomal stability, human; conditions: human liver microsomes
[14] = system: AEP; assay: Oxygen-glucose deprivation (OGD) in primary neurons, AEP activity; type: cell-based; conditions: 0.1 μM or 1.0 μM compound
Method: as §1
Depriving cells of oxygen and glucose is a cellular model that is employed to trigger acidosis in cultured cells. The efficacy of the compounds in a cellular model of oxygen-glucose deprivation (OGD) was determined in an effort to mimic the effects of stroke in primary cultured neurons. As a result of depriving neurons of oxygen and glucose-containing medium, AEP activity was doubled (FIG. 7A, ‘DMSO-Norm’ compared to ‘DMSO-OGD’), while Caspase-3 and Cathepsin activities remained relatively unchanged. […]

[15] = biological target: CYP2C19 (Homo sapiens, UniProt P33261); assay: CYP inhibition screening, CYP2C19; type: in vitro ADME
CYP2C19, sequence (P33261 whole entry): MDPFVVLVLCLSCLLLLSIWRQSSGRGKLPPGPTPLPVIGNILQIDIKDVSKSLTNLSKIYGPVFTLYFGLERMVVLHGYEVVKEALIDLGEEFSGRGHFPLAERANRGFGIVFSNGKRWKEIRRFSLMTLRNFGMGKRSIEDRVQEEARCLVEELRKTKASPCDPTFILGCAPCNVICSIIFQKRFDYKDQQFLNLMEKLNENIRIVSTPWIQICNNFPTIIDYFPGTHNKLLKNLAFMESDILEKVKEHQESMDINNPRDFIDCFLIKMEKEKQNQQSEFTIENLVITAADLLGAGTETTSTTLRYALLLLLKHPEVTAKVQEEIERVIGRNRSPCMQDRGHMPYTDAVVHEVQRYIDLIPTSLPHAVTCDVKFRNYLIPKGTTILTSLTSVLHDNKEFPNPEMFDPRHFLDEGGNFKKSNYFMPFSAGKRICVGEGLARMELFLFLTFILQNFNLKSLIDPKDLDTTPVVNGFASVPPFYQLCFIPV

[16] = Liver microsomal stability, mouse; conditions: mouse liver microsomes

Structure (SMILES): CC(=O)CC(c1ccccc1)c1c(O)c2ccccc2oc1=O (stereo not shown) [Warfarin]
- Mean Remaining Parent (NADPH-free) [1]: 100%
- Mean Remaining Parent (with NADPH) [1]: 91%
- Mean Remaining Parent (with NADPH) ([2]; 0.5 h): 96%
- Mean Remaining Parent (NADPH-free) ([2]; 30 min): 104%

Structure (SMILES): N#CSc1cnc(N)s1 [Compound 10]
- IC50 in intact Pala cells [3]: slightly larger IC50 values
- AEP activity after addition of reducing agent (reversibility) [4]: regained a substantial amount of activity
- dose dependence of APP cleavage after OGD [5]: dose-dependent decrease
- cleavage of APP after OGD [5]: blocked

Structure (SMILES): Cc1cccc(NCc2ccc(O)c3ncccc23)c1C [Compound 12]
- CYP inhibition, CYP2D6 ([6]; test concentration 3 μM): 2.9%
- CYP inhibition, CYP2D6 ([6]; test concentration 10 μM): −2.6%
- CYP inhibition, CYP3A-Testosterone ([7]; test concentration 3 μM): 14.2%
- CYP inhibition, CYP3A-Testosterone ([7]; test concentration 10 μM): 27.6%
- Pe [8]: <LLOQ
- CYP inhibition, CYP1A2 ([9]; test concentration 3 μM): 28.4%
- CYP inhibition, CYP1A2 ([9]; test concentration 10 μM): 44.5%
- CYP inhibition, CYP2C9 ([10]; test concentration 3 μM): 4.3%
- CYP inhibition, CYP2C9 ([10]; test concentration 10 μM): −2.7%
- CYP inhibition, CYP3A4-Midazolam ([11]; test concentration 3 μM): −2.5%
- CYP inhibition, CYP3A4-Midazolam ([11]; test concentration 10 μM): −2.5%
- A -> B Papp [12]: 1.4 10^−6 cm · s^−1
- B -> A Papp [12]: 3.7 10^−6 cm · s^−1
- RE [12]: 2.7
- Mean Remaining Parent (NADPH-free) [13]: 1%
- Mean Remaining Parent (with NADPH) ([13]; 30 min of incubation): 1%
- AEP activity in OGD-treated neurons [14]: slight decrease
- CYP inhibition, CYP2C19 ([15]; test concentration 3 μM): 13.4%
- CYP inhibition, CYP2C19 ([15]; test concentration 10 μM): 29.4%
- dose dependence of APP cleavage after OGD [5]: dose-dependent decrease
- cleavage of APP after OGD [5]: blocked
- Mean Remaining Parent (NADPH-free) [16]: 0%
- Mean Remaining Parent (with NADPH) [16]: 1%
